Source: US10251860B2, “Compounds for bone healing” (University of Pittsburgh—Of the Commonwealth System of …, priority 2015, dated 2019)
Entries after “also recorded” stand apart in the source; their conditions may differ.

Assays:
mice = assay: Dose escalation experiments in mice; format: in vivo, mouse
From the text: In particular, certain embodiments of the oxetane-substituted compounds (e.g., MMS350) are radiation protector/mitigators that are water soluble, and easily administered (e.g., orally administered to a subject). […] Furthermore, MnSOD-PL is relatively ineffective when delivered weeks-months after irradiation, at the time that fibrosis is forming, and appears to be only effective when delivered prior to irradiation. In contrast, MMS350 as shown in the data reported herein, has high effectiveness when delivered months after irradiation and at the time of initiation of radiation fibrosis in the lung.

[1] = system: luc+ bone marrow stromal cells migrating to lungs; assay: Live imaging of luc+ marrow cell migration to irradiated lungs; format: in vivo, mouse; details: MMS350 in drinking water
Method: C57BL/6NTac mice marrow chimeric luc+ mice were prepared by 9.25 Gy TBI, followed by an injection of 1×10^7 luc+ marrow cells 24 hours later. Subgroups of these chimeric mice were irradiated to 20 Gy to the pulmonary cavity. On day 75 following thoracic irradiation, 50% of the mice were placed on drinking water containing 100 mM MMS350. Mice in the non-chimeric group were injected intraperitoneally on day 100 after irradiation with 1×10^6 luc+ bone marrow stromal cells. Beginning 12 days after cell line injection (112 days after irradiation), the cell line injected mice were imaged at serial timepoints following injection of D-luciferin (Gold Biotechnology, St. Louis, Mo.) using a Xenogen IVIS 200 Imaging system and the bioluminescent signal for each mouse quantitated. As controls for thoracic irradiation, other C57BL/6NTac mice were irradiated to 20 Gy to the right hind limb and injected with luc+ bone marrow stromal cells in the same cell numbers and at the same time points used for the thoracic irradiation experiment. Animals were imaged for luc+ cell migration into irradiated hind limbs using methods identical to that used for pulmonary irradiation groups. The bioluminescence of the mice treated with MMS350 in the drinking water was compared to mice on regular drinking water using a Student T test. […]

PKD1 = biological target: T1, PKD1 (Homo sapiens, UniProt Q15139); assay: Radiometric PKD1 inhibition assay; format: biochemical; details: stock solutions in 25% 3/NMP
T1 sequence (Q15139 1-912): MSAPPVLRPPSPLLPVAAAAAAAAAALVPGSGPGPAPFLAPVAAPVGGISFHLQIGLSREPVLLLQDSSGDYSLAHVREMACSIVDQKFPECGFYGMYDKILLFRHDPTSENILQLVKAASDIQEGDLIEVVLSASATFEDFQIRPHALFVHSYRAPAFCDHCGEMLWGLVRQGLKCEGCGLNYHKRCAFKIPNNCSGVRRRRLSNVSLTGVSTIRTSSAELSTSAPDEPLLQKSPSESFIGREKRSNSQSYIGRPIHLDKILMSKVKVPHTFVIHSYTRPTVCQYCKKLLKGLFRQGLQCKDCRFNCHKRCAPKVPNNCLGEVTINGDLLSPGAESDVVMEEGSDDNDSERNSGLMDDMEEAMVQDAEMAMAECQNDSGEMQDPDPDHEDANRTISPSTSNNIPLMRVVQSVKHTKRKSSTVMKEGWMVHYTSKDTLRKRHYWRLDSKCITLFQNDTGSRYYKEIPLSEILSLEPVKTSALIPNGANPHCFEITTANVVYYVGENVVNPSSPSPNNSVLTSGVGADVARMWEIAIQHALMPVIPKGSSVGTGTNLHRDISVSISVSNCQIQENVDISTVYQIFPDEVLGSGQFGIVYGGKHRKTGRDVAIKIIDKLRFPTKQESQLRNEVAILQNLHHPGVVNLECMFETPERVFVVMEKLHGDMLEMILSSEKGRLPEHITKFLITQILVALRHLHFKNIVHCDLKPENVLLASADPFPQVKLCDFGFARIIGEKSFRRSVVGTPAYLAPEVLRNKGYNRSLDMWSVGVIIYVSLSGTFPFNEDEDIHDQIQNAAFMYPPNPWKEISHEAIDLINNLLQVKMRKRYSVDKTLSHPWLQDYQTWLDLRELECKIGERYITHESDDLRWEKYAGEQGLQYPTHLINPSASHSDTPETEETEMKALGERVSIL
From the text: Recently, a series of compounds with nanomolar to micromolar inhibitory activity against the serine/threonine protein kinase D (PKD) isoform PKD1 was disclosed (FIG. 7). Several lead structures, especially those containing a pyrimidine moiety, suffered from poor solubility not only in aqueous media but also in DMSO. To test the feasibility of using sulfoxide 3 as a cosolvent for in vitro assays, its use in the radiometric PKD1 inhibition assay was examined. Inhibitory activity at two concentrations (1 μM and 10 μM) was measured using compound stock solutions in three formulations: DMSO, NMP, and 25% 3/NMP (FIGS. 8 and 9).

## CC1(C[S+]([O-])CC2(C)COC2)COC1 [Compound 3, 3,3′-Sulfinylbis(methylene)bis(3-methyloxetane)]
mice
  toxic dose: a toxic dose has not yet been reached
[1]; 20 Gy thoracic irradiation, luc+ stromal cell line injected intraperitoneally
  pulmonary migration of luc+ bone marrow stromal cells: significant decrease in migration into the lungs of luc+ cells; also recorded: significant decrease in pulmonary migration of luc+ bone marrow stromal cells
[1]; luc+ marrow chimeric mice, 18 or 20 Gy thoracic irradiation, listed as MMS350
  migration of luc+ bone marrow cells into the lungs: significantly reduces migration of bone marrow cells into the lungs; also recorded: reduction of luc+ areas in the thoracic cavity
PKD1
  interference with PKD1 inhibition assay: did not interfere with the standard PKD1 inhibition assay
